Assay results: patent US7153524B2, “Method for improving adsorption of a drug from ethylene oxide derivative” (Astellas Pharma Inc., priority 2002, dated 2006)
≈ marks a conversion by molar mass, not a printed value. Counter-ions that a name gives are not always drawn.

Tests used:
H. pylori [1] = assay: Minimum concentration at which an increase in bacteria is inhibited; format: cell-based
[2] = Rate of adsorption of compound A on the oil-gel phase in presence of POE excipients (Experiment 3); format: physicochemical
Method: (§1) In order to study adsorption of a drug from an aqueous phase onto an oil phase (model of mucous layers), an in vitro test system wherein mixing of the oil components in the aqueous phase is prevented was constructed by immobilizing the oil phase with a gelling agent and separating it from the aqueous phase of a drug suspended in a mucin solution. Immobilization of the oil phase was performed by adding 120 mg of an oil gelling agent, which is a natural oil and fat fatty acid extracted from castor oil (Johnson Co., Ltd.), to 2 mL of medium chain fatty acid triglyceride (Nihon Oils and Fats Co., Ltd.; brand name: Panaset) and preparing an oil gel in a test tube (inner diameter of 1 cm, Eiken tube No. 5). A solution of 600 μg of compound A suspended in 2 mL of an aqueous 0.8% mucin solution was prepared and brought into contact with the oil phase (n=6). When Macrogol 6000 was added to the aqueous phase, the concentration was brought to 3.5% (n=3 to 6). After setting the solution aside for two hours, the aqueous phase was recovered and compound A was assayed by HPLC. Furthermore, the surface of the oil phase was washed with methanol and compound A in the recovered solution was assayed by HPLC.
The rate of adsorption of a drug of compound A on the oil phase was measured by the same method as in Example 2.

H. pylori [3] = details: compound used alone; cited from earlier work
H. pylori [4] = assay: In vivo anti-H. pylori activity, Mongolian gerbil infection model (Experiment 4); design: species or system Mongolian gerbils; details: for Clearance rate: oral twice a day for three days
Method: In vivo anti-H. pylori activity was evaluated with animal experiments using Mongolian gerbil infection models. […] The drug was administered twice a day for three days at an administration volume of 20 mL/kg using an oral stomach tube. The stomach was autopsied and excised and the number of H. pylori in the stomach were measured the day after the final administration. In vivo anti-H. pylori activity was evaluated from clearance, that is, the ratio of the number of cases in which H. pylori was identified and the number of cases in which the number of bacteria after treatment was below the detection limit.

[5] = Adsorption of compound A from aqueous phase onto immobilized oil-gel phase (Experiment 2); format: physicochemical; details: for adsorption amount of chemical compound A: drug charge 600 μg, 2 h
Method: as §1

[6] = Solubility of compound A in water and components of mucus layer; format: physicochemical
Method: Compound A is a drug that acts directly from the gastric lumen side on the H. pylori that lives in the mucous layers and therefore, the case wherein after dissolution (I), the bulk powder that has been administered transfers (IV) and the case where the bulk powder is dissolved (II) after transferring to the mucous layers (III) will be considered. The effects of Macrogol 6000 on the course of dissolution of compound A were studied. A specific amount of compound A was added to ion-exchanged water, a 0.8% mucin (Sigma) solution, a 6.2% BSA (Sigma) solution, and linoleic acid (Sigma), and various drugs suspensions were obtained by exposure for 20 minutes to ultrasonic waves (Sono Cleaner, Kaijo Corporation). The rest of the procedure was performed as in Example 1 and the following samples were obtained.
Solubility of compound A in water was calculated by filtering the liquid after dispersion using a hydrophilic filter (0.45 μm, Advantec) and submitting the product to assay by high-performance liquid chromatography (HPLC hereafter) (n=2, sample (1); n=3, sample (2)).
Solubility of the drug in mucin was calculated by filtering the liquid after dispersion using a hydrophilic filter (0.8 μm, Advantec) and submitting the product to assay by HPLC (n=3, samples (3) and (4)).
The liquid after dispersion was filtered with a hydrophilic filter (0.45 μm, Advantec), absorbance at 370 nm and 550 nm (corrected for turbidity) was determined under room temperature using an ultraviolet-visible spectrophotometer, and solubility was calculated (n=3, samples (5) and (6)).
The liquid after dispersion was filtered with a hydrophilic filter (0.45 μm, Advantec), absorbance at 366 nm and 550 nm (corrected for turbidity) was determined under room temperature using an ultraviolet-visible spectrophotometer, and solubility was calculated (n=3, samples (7) and (8)).

[7] = Adsorption of various compounds on the oil-gel phase (Experiment 5); format: physicochemical; details: 0.8% mucin, 600 μg loading, 2 hours
Method: When Macrogol 6000 was added to the aqueous phase, it was brought to 3.5% (n=3,6). […] The compounds that were used were […], nicardipine hydrochloride, compound B, and compound C. […] Furthermore, the oil phase surface was washed with methanol and the drug adsorbed on the oil phase in the recovered solution was assayed with an ultraviolet-visible spectrophotometer for each compound.

Q: For `CCCCCC/C=C/Cc1c(C)c(=O)c2ccccc2n1O` [compound A, 1-hydroxy-2-(2-trans-nonenyl)-3-methyl-4(1H)-quinolone], which “minimum concentration at which an increase in bacteria is inhibited” value (H. pylori [1]) is on record?
A: 0.025 µg/mL

Q: What about the “Adsorption on the oil-gel phase, amount(%)” value (shortened to “Adsorption … amount(%)”) ([2]; excipient HCO 60 (n 60, m 10)) of the same molecule?
A: 33 ± 14%

Q: What about the “Adsorption … amount(%)” value ([2]; excipient HCO 80 (n 80, m 13.3)) of the same molecule?
A: 17 ± 10%

Q: What about the “Adsorption … amount(%)” value ([2]; excipient HCO 100 (n 100, m 16.7)) of the same molecule?
A: 37 ± 11%

Q: What about the “Adsorption … amount(%)” value ([2]; excipient PEG400 (n 8, m 8)) of the same molecule?
A: 42 ± 9%

Q: And the “Adsorption … amount(%)” value ([2]; excipient PEG 4000 (n 72, m 72))?
A: 42 ± 4 %

Q: And the “Adsorption … amount(%)” value ([2]; excipient PEG 6000 (n 188, m 188))?
A: 72 ± 3 %

Q: And the “Adsorption … amount(%)” value ([2]; excipient PEG 20000 (n 455, m 455))?
A: 79 ± 0 %

Q: And the “Adsorption … amount(%)” value ([2]; excipient Pluronic F68 (n 160, m 80))?
A: 67 ± 3 %

Q: And the “Adsorption … amount(%)” value ([2]; excipient Pluronic L31 (n 3, m 1.5))?
A: 28 ± 5%

Q: What about the “Adsorption … amount(%)” value ([2]; excipient Pluronic L44 (n 20, m 10)) of the same molecule?
A: 25 ± 2%

Q: What about the “Adsorption … amount(%)” value ([2]; excipient Pluronic L64 (n 27, m 13.5)) of the same molecule?
A: 32 ± 5%

Q: And the “Adsorption … amount(%)” value ([2]; excipient Pluronic P85 (n 54, m 27))?
A: 40 ± 4 %

Q: What about the “Adsorption … amount(%)” value ([2]; excipient Pluronic P103 (n 29, m 14.5)) of the same molecule?
A: 22 ± 7%

Q: What about the “Adsorption … amount(%)” value ([2]; without excipient) of the same molecule?
A: 19 ± 7%

Q: What about the “number of live bacteria in vivo” value (H. pylori [3]) of the same molecule?
A: reduction in the number of live bacteria in vivo

Q: What about the “augmentation of the in vivo anti-H. pylori activity” value (H. pylori [4]; 0.2% Macrogol 6000 added vs 0.5% MC suspension alone) of the same molecule?
A: 10 fold

Q: And the clearance (H. pylori [4]; 0.2% Macrogol 6000 in 0.5% MC suspension, dose of 0.1 mg/kg or higher)?
A: ≥ 80%

Q: What about the “in vivo anti-H. pylori activity with Macrogol 6000 compared to without” value (H. pylori [4]; 0.2% of Macrogol 6000 added) of the same molecule?
A: augmentation of in vivo anti-H. pylori activity was seen

Q: What about the Clearance ratio (H. pylori [4]; PEG6000 0%, dose 0.1 mg/kg) of the same molecule?
A: (0/5)

Q: And the Clearance rate (H. pylori [4]; PEG6000 0%, dose 0.1 mg/kg)?
A: 0%

Q: What about the Clearance ratio (H. pylori [4]; PEG6000 0%, dose 0.3 mg/kg) of the same molecule?
A: (1/5)

Q: And the Clearance rate (H. pylori [4]; PEG6000 0%, dose 0.3 mg/kg)?
A: 20%

Q: What about the Clearance ratio (H. pylori [4]; PEG6000 0%, dose 1 mg/kg) of the same molecule?
A: (4/5)

Q: What about the Clearance rate (H. pylori [4]; PEG6000 0%, dose 1 mg/kg) of the same molecule?
A: 80%

Q: And the Clearance rate (H. pylori [4]; PEG6000 0%, dose 1 mg/kg, listed as chemical compound A)?
A: 80%

Q: And the Clearance ratio (H. pylori [4]; PEG6000 0%, dose 3 mg/kg)?
A: (4/5)

Q: What about the Clearance rate (H. pylori [4]; PEG6000 0%, dose 3 mg/kg) of the same molecule?
A: 80%

Q: And the Clearance ratio (H. pylori [4]; PEG6000 0.2%, dose 0.1 mg/kg)?
A: (4/5)

Q: And the Clearance rate (H. pylori [4]; PEG6000 0.2%, dose 0.1 mg/kg)?
A: 80%

Q: And the Clearance ratio (H. pylori [4]; PEG6000 0.2%, dose 0.3 mg/kg)?
A: (4/4)

Q: And the Clearance rate (H. pylori [4]; PEG6000 0.2%, dose 0.3 mg/kg)?
A: 100%

Q: What about the Clearance ratio (H. pylori [4]; PEG6000 0.2%, dose 1 mg/kg) of the same molecule?
A: (4/5)

Q: What about the Clearance rate (H. pylori [4]; PEG6000 0.2%, dose 1 mg/kg) of the same molecule?
A: 80%

Q: And the Clearance ratio (H. pylori [4]; PEG6000 0.2%, dose 3 mg/kg)?
A: (4/4)

Q: What about the Clearance rate (H. pylori [4]; PEG6000 0.2%, dose 3 mg/kg) of the same molecule?
A: 100%

Q: And the “drug adsorbed at the surface of the oil phase, % of the drug that was added” value ([5]; compound A-mucin suspension with Macrogol 6000, average)?
A: 93%

Q: What about the “drug adsorbed at the surface of the oil phase, % of the charged amount” value ([5]; compound A-mucin suspension, no Macrogol 6000) of the same molecule?
A: 47%

Q: What about the “adsorption amount of chemical compound A” value ([5]; mucin (+), with 3.5% PEG6000) of the same molecule?
A: 506 µg

Q: And the “adsorption amount of chemical compound A” value ([5]; mucin (+), with 3.5% PEG6000, listed as chemical compound A)?
A: 506 ± 53 µg

Q: And the “adsorption amount of chemical compound A” value ([5]; mucin (+), without PEG6000)?
A: 259 µg

Q: What about the “adsorption amount of chemical compound A” value ([5]; mucin (+), without PEG6000, listed as chemical compound A) of the same molecule?
A: 259 ± 63 µg

Q: And the “adsorption amount of chemical compound A” value ([5]; mucin (−), with 3.5% PEG6000)?
A: 173 ± 25 µg

Q: And the “adsorption amount of chemical compound A” value ([5]; mucin (−), without PEG6000)?
A: 249 ± 24 µg

Q: And the “increase in amount adsorbed on the oil phase when Macrogol 6000 was added” value ([5]; mucin suspension, with vs without Macrogol 6000)?
A: 2.0 fold

Q: And the solubility ([6]; 0.8% mucin aq. solution (sample 3))?
A: 5.9 µg/mL (≈ 19.7 µM)

Q: And the solubility ([6]; 0.8% mucin aq. solution +3.5% PEG6000 (sample 4))?
A: 6.9 µg/mL (≈ 23 µM)

Q: And the solubility ([6]; 6.2% BSA aq. solution (sample 5))?
A: 18.0 µg/mL (≈ 60.1 µM)

Q: And the solubility ([6]; 6.2% BSA aq. solution +3.5% PEG6000 (sample 6))?
A: 26.9 µg/mL (≈ 89.8 µM)

Q: What about the “increase in solubility when Macrogol 6000 was added” value ([6]; BSA solution, sample 6 vs 5) of the same molecule?
A: 1.5 fold

Q: And the “increase in solubility when Macrogol 6000 was added” value ([6]; aqueous mucin solution, sample 4 vs 3)?
A: 1.2 fold

Q: And the solubility ([6]; distilled water +3.5% PEG6000 (sample 2))?
A: 0.1 µg/mL (≈ 0.334 µM)

Q: And the solubility ([6]; distilled water, no PEG6000 (sample 1))?
A: 0.1 µg/mL (≈ 0.334 µM)

Q: And the solubility ([6]; linoleic acid (sample 7))?
A: 135.0 µg/mL (≈ 451 µM)

Q: What about the solubility ([6]; linoleic acid +10% PEG6000 (sample 8)) of the same molecule?
A: 110.0 µg/mL (≈ 367 µM)

Q: For `Cc1nc2c([nH]1)-c1ccccc1N(C(=O)c1ccc(NC(=O)c3ccccc3-c3ccccc3)cc1)CC2.Cl` [compound C, 4′-[(2-methyl-1,4,5,6-tetrahydroimidazo[4,5-d][1]benzazepin-6-yl)carbonyl]-2-phenylbenzanilide hydrochloride], which “adsorption amount of chemical compound” value ([7]; with 3.5% PEG6000) is on record?
A: 370 ± 12 µg

Q: And the “adsorption amount of chemical compound” value ([7]; without PEG6000)?
A: 335 ± 10 µg

Q: With `Cc1cccc(NC(=O)N[C@@H]2N=C(c3ccccc3)c3ccccc3N(CC(=O)c3ccccc3C)C2=O)c1` [compound B, (R)-1-[2,3-dihydro-1-(2′-methylphenacyl)-2-oxo-5-phenyl-1H-1,4-benzodiazepin-3-yl]-3-(3-methylphenyl)urea] as the molecule, how does the “adsorption amount of chemical compound” value ([7]; with 3.5% PEG6000) read?
A: 411 ± 3 µg

Q: What about the “adsorption amount of chemical compound” value ([7]; without PEG6000) of the same molecule?
A: 269 ± 13 µg

Q: With `COC(=O)C1=C(C)NC(C)=C(C(=O)OCCN(C)Cc2ccccc2)C1c1cccc([N+](=O)[O-])c1` (stereo not shown) [nicardipine, nicardipine hydrochloride, reference compound] as the molecule, how does the “adsorption amount of chemical compound” value ([7]; with 3.5% PEG6000) read?
A: 96 ± 5 µg

Q: And the “adsorption amount of chemical compound” value ([7]; without PEG6000)?
A: 47 ± 6 µg
